Reference: patent US20180353445A1, “METHODS AND COMPOSITIONS RELATING TO PROTEASOME INHIBITOR RESISTANCE” (Whitehead Institute for Biomedical Research, priority 2017, published 2018)
Residues, ends and D or L forms follow the SMILES beside them. *: point of attachment. Cbz = O=C(OCc1ccccc1)*

Key:
T47D cells = test: Cell viability, T47D cells with doxycycline-inducible PSMD2 shRNA (KD) vs control; assay type: cell-based, human; conditions: doxycycline-regulated PSMD2 shRNA
Procedure: FIGS. 37A-37E: Subunit suppression results in highly specific drug sensitivity alteration. Schematic representation of the drug screen setup. (FIG. 37A) 147D cells harboring a doxycycline-inducible PSMD2 shRNA were grown in the presence or absence of doxycycline for 48 hr. Cells were then collected, washed, and plated in the absence of doxycycline for 24 hr prior to exposure different compounds. Relative cell numbers were measured 3 days later. […] (FIGS. 37C-37E) The relative viability of the PSMD2 knockdown (KD) versus the control was calculated for replica experiments and the log2 of the ratio is plotted for 349 compounds from the Selleck anti-cancer L3000 drug library that were tested in 4 concentrations (FIG. 37C), the Selleck natural product library (NPC) comprising 502 compounds in 5 doses (FIG. 37D), and the NIH bioactive compound library that includes 731 compounds in 4 doses (FIG. 37E). Specific compounds are annotated.
The effect of transient PSMD2 reduction on growth of T47D cells in the presence of different proteasome inhibitors (bortezomib, MLN9708, carfilzomib, oprozornib) was tested. T47D cells harboring a doxycycline inducible control shRNA (GFP) or a doxycycline-inducible PSMD2 shRNA (TurhoRFP) were incubated with doxycycline for 3 days. Cells were then split and grown in the absence of Dox and proteasome inhibitors were then added at various concentrations. Cells were maintained in culture and then counted.
For the generation of the T47D Tet-inducible PSMD2 knockdown cell line- the TRIPZ vector with an inducible shRNA targeting PSMD2 was purchased from Dhannacon (clone V3THS_403760). It was introduced to the T47D cells according to manufactures protocol and cells were selected with puromycin 1 μg/ml for one week. The cells were exposed to doxycycline for 24 hours and cells were FACS sorted for the top 10% of most RFP expressing cells (highest expression of shRNA). The cells were further cultured in the absence of doxycycline and PSMD2 knockdown was induced as specified in the relevant Examples. The TRIPZ control GFP vector was created by removing the turboRFP from the TRIPZ control vector by digestion with Agel and ClaI and replacing it with GFP amplified with primers flanking with Agel and Clal restriction sites.
Cell Viability Assay—Relative cell growth and survival were measured in 96-well microplate format in the shRNA experiments and in 384 well format in the drug toxicity assays, by using the fluorescent detection of resazurin dye reduction as an endpoint (544 nm excitation and 590 run emission). 2,500 cells in 96 wells format or 1,000 cells in 384 well format were plated 24 hours before compound exposure (for 72 hours or indicated time). Each analysis was performed at least with three replicas.

Saccharomyces cerevisiae = test: Yeast MG132 sensitivity assay, proteasome subunit DAmP strains; assay type: cell-based; conditions: five of twelve strains, 50 μM
Procedure: FIG. 7: Reducing the levels of 19S subunits is an evolutionarily conserved mechanism to acquire resistance to proteasome inhibition.
As the 19S regulatory complex components are essential for viability in yeast, we utilized a library of hypomorphic (DAmP) alleles for essential yeast genes. In this library, the expression of individual mRNA. species is reduced from two to ten-fold by replacing the mRNA's 3′ untranslated region (Breslow et al., 2008).
Yeast cells were grown over night in media containing L-proline as nitrogen source instead of ammonium sulfate. The overnight cultures were diluted into OD 0.1 and were grown in the L-proline culture with 0.003% SDS with or without 50 μM MG-132. OD was measured over the period of 48 hours.

cancer cell lines (GDSC) = test: Genomics of Drug Sensitivity in Cancer (GDSC) data analysis, IC50 of bortezomib and MG132 vs 19S expression / sigma score; assay type: cell-based, human; conditions: GDSC database
Excerpt: In some aspects, whether a cancer cell is considered resistant or sensitive to a particular agent may be determined by comparing the IC50 of the agent for the cancer cell with the IC50 of the agent as measured for each cell line in a panel of diverse cancer cell lines. Cancer cells for which the agent has an IC50 in the 10th percentile of IC50 values determined for the agent on a diverse panel of cancer cell lines may be considered sensitive, while cancer cells for which the agent has an IC50 in the 90th percentile of IC50 values determined for the agent on a diverse panel of cancer cell lines may be considered resistant to the agent.
We asked if this might correlate with changes in 19S subunit expression. We analyzed the Genomics of Drug Sensitivity in Cancer (GDSC) database, a public resource of transcriptional data and drug responsiveness collected from a spectrum of human cancer cell lines with diverse tissue origins and diverse oncogenic lesions (Garnett et al., 2012). […]
Further details of methods used in GDSC dataset analysis: Gene expression and drug sensitivity data was downloaded from the World Wide Web at subdomain cancerrxgene.org. […] For each proteasomal subunit gene, a-score was calculated for each cell line. […] P-values were calculated by t-test, comparing the logEC50s between the 3 sigma and not 3 sigma.

In the case of CC(C)C[C@@H](C=O)NC(=O)[C@H](CC(C)C)NC(=O)[C@H](CC(C)C)NC(=O)OCc1ccccc1 [MG132, N-(benzyloxycathonyl)leucinylieucinylieucinal] (Cbz-Leu-Leu-Leu-aldehyde), the “resistance after transient reduction of PSMD2” value (T47D cells) was “significantly increased resistance”, the “resistance of 19S DAmP yeast strains to proteasome inhibition” value (Saccharomyces cerevisiae) was “significantly increased resistance” and the “average IC50 value in 3-Sigma cell lines vs all other lines” value (cancer cell lines (GDSC)) was “considerably higher”.
